Reference: ChEMBL document CHEMBL1155385, “The identification of a selective dopamine D2 partial agonist, D3 antagonist displaying high levels of brain exposure” (Bioorg Med Chem Lett, 2010)
In brackets after ≈: the same amount, converted by molar mass.

Assays:
[1] = target: D(2) dopamine receptor (Homo sapiens, UniProt P14416); test: Partial agonistic activity at human dopamine D2 receptor expressed in CHO cells by assay [35S]GTPgamma assay with scintillation proximity affinity assay; format: functional, cell-based
Sequence of D(2) dopamine receptor (P14416 whole entry): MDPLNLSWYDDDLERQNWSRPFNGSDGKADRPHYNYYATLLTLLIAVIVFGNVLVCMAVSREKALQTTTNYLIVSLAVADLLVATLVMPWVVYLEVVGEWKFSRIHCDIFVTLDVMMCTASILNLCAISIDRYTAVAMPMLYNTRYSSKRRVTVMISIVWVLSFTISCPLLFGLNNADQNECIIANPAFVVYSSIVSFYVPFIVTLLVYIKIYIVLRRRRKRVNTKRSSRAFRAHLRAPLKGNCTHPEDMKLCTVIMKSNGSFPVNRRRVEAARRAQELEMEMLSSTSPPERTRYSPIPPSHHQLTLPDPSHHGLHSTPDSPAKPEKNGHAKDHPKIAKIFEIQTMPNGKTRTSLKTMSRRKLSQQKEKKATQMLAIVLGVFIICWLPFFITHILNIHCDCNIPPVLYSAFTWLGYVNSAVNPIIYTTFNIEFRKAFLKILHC

[2] = target: D(3) dopamine receptor (Homo sapiens, UniProt P35462); test: Antagonist activity at human dopamine D3 receptor expressed in CHO cells assessed as inhibition of quinperol-induced [35S]GTPgamma binding by scintillation proximity affinity assay; format: functional, cell-based
Sequence of D(3) dopamine receptor (P35462 whole entry): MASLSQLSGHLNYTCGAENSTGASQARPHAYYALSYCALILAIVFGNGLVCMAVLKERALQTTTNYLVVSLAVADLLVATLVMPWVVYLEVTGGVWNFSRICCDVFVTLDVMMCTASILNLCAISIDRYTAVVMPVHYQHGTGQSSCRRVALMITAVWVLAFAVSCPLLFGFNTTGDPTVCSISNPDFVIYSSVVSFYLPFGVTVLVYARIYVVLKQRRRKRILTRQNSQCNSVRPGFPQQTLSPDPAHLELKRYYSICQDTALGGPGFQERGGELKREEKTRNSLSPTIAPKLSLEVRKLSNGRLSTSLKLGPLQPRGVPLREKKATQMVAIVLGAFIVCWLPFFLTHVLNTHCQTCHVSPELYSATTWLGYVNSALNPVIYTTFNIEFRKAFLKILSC

[3] = Intrinsic clearance in human liver microsomes; format: ADME, Microsome
[4] = target: Cytochrome P450 2D6 (Homo sapiens, UniProt P10635); test: Inhibition of human recombinant CYP2D6 by spectrofluorimetry; format: ADME
Sequence of Cytochrome P450 2D6 (P10635 whole entry): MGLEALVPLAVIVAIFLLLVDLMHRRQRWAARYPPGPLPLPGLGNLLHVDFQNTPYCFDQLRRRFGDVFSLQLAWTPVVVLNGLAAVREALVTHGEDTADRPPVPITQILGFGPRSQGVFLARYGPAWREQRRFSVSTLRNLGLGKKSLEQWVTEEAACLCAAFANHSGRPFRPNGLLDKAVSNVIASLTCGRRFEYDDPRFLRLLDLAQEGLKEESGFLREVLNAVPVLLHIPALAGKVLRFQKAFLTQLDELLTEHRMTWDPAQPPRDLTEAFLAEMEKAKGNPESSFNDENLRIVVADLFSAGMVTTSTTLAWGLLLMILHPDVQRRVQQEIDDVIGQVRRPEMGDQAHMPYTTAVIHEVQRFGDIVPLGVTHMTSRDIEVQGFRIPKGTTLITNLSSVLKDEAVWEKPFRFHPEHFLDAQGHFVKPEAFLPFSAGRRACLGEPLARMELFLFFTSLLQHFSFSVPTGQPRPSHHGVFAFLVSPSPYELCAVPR

[5] = target: Voltage-gated inwardly rectifying potassium channel KCNH2 (Homo sapiens, UniProt Q12809); test: Displacement of [3H]dofetilide from human ERG by scintillation proximity assay
Sequence of Voltage-gated inwardly rectifying potassium channel KCNH2 (Q12809 whole entry): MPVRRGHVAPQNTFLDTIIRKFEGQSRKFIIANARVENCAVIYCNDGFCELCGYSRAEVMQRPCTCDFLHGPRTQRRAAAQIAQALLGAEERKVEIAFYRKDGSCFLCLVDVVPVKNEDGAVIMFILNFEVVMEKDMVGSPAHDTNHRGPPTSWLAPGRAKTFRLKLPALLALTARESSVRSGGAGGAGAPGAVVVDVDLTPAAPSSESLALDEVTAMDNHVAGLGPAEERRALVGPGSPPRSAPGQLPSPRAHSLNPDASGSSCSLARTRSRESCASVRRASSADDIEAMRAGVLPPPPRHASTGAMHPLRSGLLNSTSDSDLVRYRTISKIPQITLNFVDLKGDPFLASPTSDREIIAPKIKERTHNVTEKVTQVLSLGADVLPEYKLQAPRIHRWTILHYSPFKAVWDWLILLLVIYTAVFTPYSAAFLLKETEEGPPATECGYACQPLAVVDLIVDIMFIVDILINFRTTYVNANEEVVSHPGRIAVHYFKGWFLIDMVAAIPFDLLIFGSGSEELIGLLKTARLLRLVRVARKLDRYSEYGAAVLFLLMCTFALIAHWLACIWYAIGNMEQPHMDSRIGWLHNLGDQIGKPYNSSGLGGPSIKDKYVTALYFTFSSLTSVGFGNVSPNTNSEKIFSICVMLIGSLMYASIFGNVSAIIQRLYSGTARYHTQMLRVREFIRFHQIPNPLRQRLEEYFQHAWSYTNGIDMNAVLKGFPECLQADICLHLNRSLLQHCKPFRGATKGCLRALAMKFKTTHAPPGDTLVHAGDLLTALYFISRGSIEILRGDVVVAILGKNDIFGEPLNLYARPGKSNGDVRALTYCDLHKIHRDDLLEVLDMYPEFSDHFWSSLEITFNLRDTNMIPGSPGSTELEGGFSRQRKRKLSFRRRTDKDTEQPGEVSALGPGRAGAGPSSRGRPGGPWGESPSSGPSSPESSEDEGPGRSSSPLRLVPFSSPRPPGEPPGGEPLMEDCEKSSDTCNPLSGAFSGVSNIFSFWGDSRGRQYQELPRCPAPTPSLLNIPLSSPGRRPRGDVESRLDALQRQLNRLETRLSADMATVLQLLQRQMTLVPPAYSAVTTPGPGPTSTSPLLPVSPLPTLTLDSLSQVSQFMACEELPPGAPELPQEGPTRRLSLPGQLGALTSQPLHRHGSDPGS

[6] = target: 5-hydroxytryptamine receptor 1D (Homo sapiens, UniProt P28221); test: Binding affinity to 5HT1D receptor
Sequence of 5-hydroxytryptamine receptor 1D (P28221 whole entry): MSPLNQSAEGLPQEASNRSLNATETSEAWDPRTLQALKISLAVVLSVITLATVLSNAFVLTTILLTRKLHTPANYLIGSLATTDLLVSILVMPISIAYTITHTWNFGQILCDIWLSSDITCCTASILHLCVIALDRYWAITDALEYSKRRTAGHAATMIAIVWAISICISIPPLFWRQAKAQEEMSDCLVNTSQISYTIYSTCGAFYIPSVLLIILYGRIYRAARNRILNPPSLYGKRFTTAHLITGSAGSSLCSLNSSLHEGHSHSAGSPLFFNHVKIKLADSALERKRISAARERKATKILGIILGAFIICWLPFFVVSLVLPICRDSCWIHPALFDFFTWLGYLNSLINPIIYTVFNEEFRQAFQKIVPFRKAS

[7] = Lipophilicity, log D at pH 7.4; format: physicochemical; settings: buffer
[8] = target: 5-hydroxytryptamine receptor 2A (Homo sapiens, UniProt P28223); test: Activity at 5HT2A receptor
Sequence of 5-hydroxytryptamine receptor 2A (P28223 whole entry): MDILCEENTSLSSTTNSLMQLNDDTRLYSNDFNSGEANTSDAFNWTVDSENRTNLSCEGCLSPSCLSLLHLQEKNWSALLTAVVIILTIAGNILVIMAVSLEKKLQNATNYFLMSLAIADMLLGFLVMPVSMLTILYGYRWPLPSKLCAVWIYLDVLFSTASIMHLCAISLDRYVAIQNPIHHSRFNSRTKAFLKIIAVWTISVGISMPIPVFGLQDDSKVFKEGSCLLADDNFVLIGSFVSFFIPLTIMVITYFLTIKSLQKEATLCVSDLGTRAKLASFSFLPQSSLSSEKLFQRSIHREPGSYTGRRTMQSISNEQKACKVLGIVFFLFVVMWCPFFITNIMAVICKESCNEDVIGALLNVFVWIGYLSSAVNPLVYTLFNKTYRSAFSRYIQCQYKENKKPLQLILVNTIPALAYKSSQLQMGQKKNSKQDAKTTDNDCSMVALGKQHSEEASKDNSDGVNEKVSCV

[9] = tested on: Liver microsomes; test: Intrinsic clearance in rat liver microsomes; format: ADME, Microsome
[10] = target: T1, 5-hydroxytryptamine receptor 1A (Homo sapiens, UniProt P08908); test: Binding affinity to 5HT1A receptor
T1 sequence (P08908 whole entry): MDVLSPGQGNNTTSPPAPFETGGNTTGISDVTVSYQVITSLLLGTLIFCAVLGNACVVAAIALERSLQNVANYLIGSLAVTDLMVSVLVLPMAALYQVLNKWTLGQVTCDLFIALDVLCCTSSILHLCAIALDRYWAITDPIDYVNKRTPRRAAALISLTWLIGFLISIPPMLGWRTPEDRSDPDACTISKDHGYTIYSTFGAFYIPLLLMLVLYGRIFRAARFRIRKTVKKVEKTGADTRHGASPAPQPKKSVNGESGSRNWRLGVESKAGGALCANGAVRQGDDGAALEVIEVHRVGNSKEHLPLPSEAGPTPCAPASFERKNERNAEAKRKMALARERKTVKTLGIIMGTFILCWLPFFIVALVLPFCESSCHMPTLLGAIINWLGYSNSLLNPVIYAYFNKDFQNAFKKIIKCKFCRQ

[11] = target: Histamine H1 receptor (Homo sapiens, UniProt P35367); test: Activity at histamine H1 receptor
Sequence of Histamine H1 receptor (P35367 whole entry): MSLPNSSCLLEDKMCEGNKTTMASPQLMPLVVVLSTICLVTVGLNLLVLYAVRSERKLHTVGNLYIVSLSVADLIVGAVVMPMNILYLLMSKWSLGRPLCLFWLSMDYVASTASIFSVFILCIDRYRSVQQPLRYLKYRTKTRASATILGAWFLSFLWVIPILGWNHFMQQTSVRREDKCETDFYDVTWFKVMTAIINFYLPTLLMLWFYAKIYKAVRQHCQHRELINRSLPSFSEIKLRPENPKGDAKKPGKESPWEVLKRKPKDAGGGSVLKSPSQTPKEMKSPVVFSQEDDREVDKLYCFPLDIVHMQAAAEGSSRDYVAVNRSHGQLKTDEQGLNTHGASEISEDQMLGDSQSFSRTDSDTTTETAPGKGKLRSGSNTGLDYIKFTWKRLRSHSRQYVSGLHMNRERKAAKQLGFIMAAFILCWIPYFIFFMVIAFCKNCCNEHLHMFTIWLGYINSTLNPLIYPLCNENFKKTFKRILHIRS

[12] = Solubility of the compound; format: physicochemical
[13] = target: T2, Alpha-1B adrenergic receptor (Homo sapiens, UniProt P35368); test: Activity at Alpha-1B adrenergic receptor
T2 sequence (P35368 whole entry): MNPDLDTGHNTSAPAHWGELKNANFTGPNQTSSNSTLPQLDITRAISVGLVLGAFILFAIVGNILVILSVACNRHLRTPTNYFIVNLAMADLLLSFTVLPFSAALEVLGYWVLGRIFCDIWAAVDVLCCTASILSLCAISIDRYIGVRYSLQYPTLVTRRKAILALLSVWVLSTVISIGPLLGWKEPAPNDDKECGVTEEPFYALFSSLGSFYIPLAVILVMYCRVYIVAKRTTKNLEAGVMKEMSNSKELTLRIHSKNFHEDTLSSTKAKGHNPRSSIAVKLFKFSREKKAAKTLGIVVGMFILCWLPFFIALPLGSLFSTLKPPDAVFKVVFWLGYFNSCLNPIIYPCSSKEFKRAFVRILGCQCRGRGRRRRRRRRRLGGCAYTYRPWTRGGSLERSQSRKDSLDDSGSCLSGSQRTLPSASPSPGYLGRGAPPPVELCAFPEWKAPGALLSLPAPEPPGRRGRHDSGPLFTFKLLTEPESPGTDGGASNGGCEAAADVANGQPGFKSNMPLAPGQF

Row | Compound | EC50 [1] [nM] | Ki [1] [nM] | EC50 [2] [µM] | Ki [2] [nM] | further results
1 | O=C1N(CC2CCCCN2)CCN1c1cccnc1 (stereo not drawn) | 501 | > 631 | > 3.16 | > 631 | –
2 | Cc1ccc(N2CCN(CCN3CCCCCC3)C2=O)cc1 | > 7940 | 50.1 | > 3.16 | 126 | –
3 | O=C1N(CCN2CCCCCC2)CCN1c1ccc(Cl)cc1 | 50.1 | 100 | > 3.16 | 79.4 | –
4 | O=C1N(CCN2CCCCCC2)CCN1c1cc(Cl)cc(Cl)c1 | > 7940 | 0.631 | > 3.16 | 1.58 | –
5 | Cc1ccccc1N1CCN(CCN2CCCCCC2)C1=O | > 7940 | > 631 | > 3.16 | > 631 | –
6 | COc1cccc(N2CCN(CCN3CCCCCC3)C2=O)c1 | > 7940 | 39.8 | > 3.16 | 50.1 | –
7 | O=C1N(CCN2CCCCCC2)CCN1c1cccc(C(F)(F)F)c1 | > 7940 | 1.58 | > 3.16 | 1 | –
8 | O=C1N(CCN2CCCCCC2)CCN1c1cccnc1 | 7.94 | 100 | > 3.16 | 79.4 | –
9 | O=C1N(CCN2CCCCCC2)CCN1c1ccncc1 | > 3160 | 631 | > 3.16 | > 631 | –
10 | O=c1n(CCN2CCCCCC2)ccn1-c1cccc(Cl)c1 | 126 | 398 | > 3.16 | > 631 | –
11 | O=S1(=O)N(CCN2CCCCCC2)CCN1c1cccc(Cl)c1 | 126 | 200 | > 3.16 | 316 | –
12 | O=C1N(CC2CCCNC2)CCN1c1cccc(Cl)c1 (stereo not drawn) | > 7940 | > 631 | > 3.16 | > 631 | –
13 | O=C1N(CC2CCNCC2)CCN1c1cccc(Cl)c1 | > 7940 | > 631 | > 3.16 | > 631 | –
14 | O=C1N(CC2CCCCN2)CCN1c1cccc(C(F)(F)F)c1 (stereo not drawn) | > 7940 | 20 | > 3.16 | 0.251 | –
15 | O=c1n(CCCN2CCCCCC2)ccn1-c1cccc(Cl)c1 | > 7940 | 631 | > 3.16 | 126 | –

Now from value to compound, other results behind:

Row | EC50 [1] [nM] | Ki [1] [nM] | EC50 [2] [µM] | Ki [2] [nM] | Compound | further results
16 | 1 | 10 | > 3.16 | 5.01 | O=C1N(CCN2CCCCCC2)CCN1c1cccc(Cl)c1 | –
17 | 2.51 | 15.8 | > 3.16 | 3.98 | CN1CCCCC1CN1CCN(c2cccc(Cl)c2)C1=O (stereo not drawn) | –
18 | 10 | 25.1 | > 3.16 | 79.4 | Cc1cccc(N2CCN(CCN3CCCCCC3)C2=O)c1 | –
19 | 0.631 | 7.94 | > 3.16 | 63.1 | O=C1N(CCN2CCCCCC2)CCN1c1ccccc1 | –
20 | 0.794 | 2.51 | > 3.16 | 15.8 | O=C1N(CCN2CCCCCC2)CCN1c1cccc(F)c1 | –
21 | 10 | 63.1 | > 3.16 | 251 | O=C1N(CCN2CCCCCC2)CCN1c1ccc(F)cc1 | –
22 | 10 | 15.8 | > 3.16 | 25.1 | O=C1N(CCN2CCCCCC2)CCN1c1ccc(F)c(Cl)c1 | –
23 | 0.631 | 79.4 | > 3.16 | 3.98 | O=C1N(CC2CCCCN2)CCN1c1cccc(Cl)c1 (stereo not drawn) | CLint scaled [3]: 3.4 mL/min/g; IC50 [4]: 1000 nM; IC50 [5]: 7.94 µM; EC50 [6]: 501 nM; logD [7]: 1.24; Ki [8]: > 1580 nM; CL [9]: 23.7 mL/min/g; EC50 [10]: 794 nM; Ki [11]: > 2510 nM; solubility [12]: 148 µg/mL (≈ 504 µM); Ki [13]: > 251 nM
